Data on 20 molecules can be found in US12599588B2, “Inhibitor for V-ATPase activity, antibacterial agent, medicine, antibacterial method and screening method” (Japan Science and Technology Agency, priority 2019, dated 2026).

What is called IC50 is the concentration needed to halve the response being measured.

For assay [1], the system named is enterococci (Enterococcus hirae). Kind of assay: Growth experiment of enterococci (secondary screening), OD600 at pH 7.0 and pH 8.5. It is filed as cell-based. On the set-up: Growth inhibition rate (%): concentration or dose not given beside the values. As to conditions: for Specificity: growth inhibition at pH 8.5 versus pH 7.0. The method, then:
In the culture of enterococci (Enterococcus hirae), a culture medium in which the Na^+ concentration had been adjusted by adding a buffer solution using 2% tryptone and 1% yeast extract as the base was used. In a case of adding glucose, glucose prepared in a 50% solution was added so as to be 1% into the culture medium when the culture medium was used. The whole amount 200 μL was cultured using a 96-well plate, and OD600 was measured every hour by using a plate reader. By using culture media at pH 7.0 and pH 8.5, the effect of pH on the growth was observed. In culture of bacteria, the pH often fluctuates largely due to the decomposition of the sugars required for the growth, and it is extremely important to maintain a constant pH in this experiment, and therefore, the pH was maintained constant with the addition of a buffer suitable for each pH. Since the V-ATPase is expressed only under an alkaline condition, the growth inhibition observed with the addition of an inhibitor is largely dependent on the pH.
IC50 and the like of the above 24 kinds of compounds are described in the following table. […] Furthermore, with respect to the symbol “n.a.”, a compound having a growth inhibition rate of 60% or more at pH 7.0 is determined that there was the growth inhibition. In addition, the growth inhibition rate of a compound having no clear inhibition is also recorded for reference.

For assay [2], the target named is T1, V-ATPase (purified from enterococci or recombinant E. coli) (Enterococcus hirae, UniProt P43439+P43457).
T1 construct: made in house; host or cells: Enterococcus hirae (native) or recombinant E. coli
Kind of assay: ATPase activity measurement (molybdenum blue method, primary screening). It counts as biochemical. The method, then: The ATPase activity can be measured by a molybdenum blue method for measuring absorbance of the inorganic phosphoric acid generated by hydrolysis of ATP. As the reaction conditions, conditions for measuring the ATPase activity can be adopted. As the buffer solution used in the reaction, Tris-HCl buffer can be used. The reaction time is usually 10 to 60 minutes, but can be appropriately adjusted depending on the air temperature or the like. The reaction of V-ATPase is terminated with the addition of a surfactant such as sodium dodecyl sulfate (SDS), and into which a color-developing liquid (such as ferrous sulfate) is added to give a color, and then the concentration of the inorganic phosphoric acid can be calculated by the measurement of the absorbance at a wavelength of 650 nm.
From the concentration of inorganic phosphoric acid calculated above, the inhibition rate of the V-ATPase reaction can be calculated. That is, a graph is created in which the inhibition rate is plotted on the vertical axis and the concentration of compound is plotted on the horizontal axis, and the concentration (IC50) at which the inhibition rate becomes 50% is determined. As the concentration of compound at which IC50 is obtained becomes lower, a higher V-ATPase inhibitory effect is exerted with a small amount, and accordingly, the compound can be taken as a candidate compound for the inhibitor for V-ATPase activity.
The V-ATPase was prepared by the method disclosed in the following papers. • Paper 1: Takeshi Murata, et. al, “Purification and Reconstitution of Na^+-translocating Vacuolar ATPase from Enterococcus hirae”, J. Biol. Chem. 272, 24885-24890 (1997) • Paper 2: Takeshi Murata, et. al, “Torque Generation of Enterococcus hirae V-ATPase”, J. Biol. Chem. 289, 31212-31223 (2014)
ATPase activity measurement was conducted by a molybdenum blue method that quantifies the inorganic phosphoric acid generated by hydrolysis of ATP with the use of absorbance measurement. The measurement was conducted in a 96-well plate, and 0.05% DDM (n-dodecyl-β-D-maltoside), 10 μg/mL of V-ATPase (purified from enterococci or recombinant E. coli), and 20 μM of a compound were added into a buffer (100 mM Tris-HCl at pH 8.5, 100 mM NaCl, 5 mM MgSO4, 10% glycerol). Into the mixture obtained above, ATP was added so as to be 5 mM, the whole amount was set to 100 μL, the reaction was started while stirring the mixture with a stirrer, and the reaction time was set to 30 minutes. Since the ATPase activity changes largely depending on the reaction temperature, the reaction time was adjusted within the range of 10 to 60 minutes corresponding to the air temperature on the day of the experiment. With the addition of 50 μL of 20% SDS, the V-ATPase was denatured and the reaction was terminated, and into the resultant mixture, 75 μL of color-developing liquid (5% ferrous sulfate, 1.6% ammonium molybdate, and 1 M sulfuric acid) was added to give a color. Immediately, the absorbance at a wavelength of 650 nm was measured by using a plate reader. Four kinds of KH2PO4 aqueous solutions of 0.2 mM, 0.5 mM, 1.0 mM, and 1.5 mM were reacted with MQ (ultrapure water) in the same experiment system, and then the activity of V-ATPase was measured by determining the concentration of generated inorganic phosphoric acid with the use of a created calibration curve. In this regard, a compound that had inhibited 50% or more of the activity of V-ATPase was diluted stepwisely so as to have a concentration of 10 μM, 5 μM, 2 μM, 1 μM, 500 nM, 200 nM, 100 nM, and 50 nM, and the measurement similar to the above was conducted.
From the results of the above measurement of ATPase activity, the inhibition rate was calculated comparing the decrease in the activity by assuming the activity under the condition of no compound addition as 100. A graph was created in which the inhibition rate was plotted on the vertical axis and the concentration of compound was plotted on the horizontal axis (FIG. 2). […]

Where [3] appears, read: Table 2, E. hirae growth, pH not stated (media pH 7.0 and pH 8.5).
Where [4] appears, read: IC50 (nM), Table 2, inhibition of V-ATPase ATPase activity, pH 8.5 buffer.
[5] abbreviates: high affinity for V-ATPase (IC50), unit inferred.
Setting [6] is: Table 2, inhibition of V-ATPase ATPase activity, pH 8.5 buffer, read-out: IC50.
The mark [7] stands for this setting: Table 3, 2-phenyl benzimidazole derivatives.
Where [8] appears, read: Table 3, 2-phenyl benzimidazole derivatives, read-out: IC50.

Where two headings read alike, the source gives them in different places. Some results are limits rather than exact numbers.

Turning to `O=C1N=C(NC2CCCC2)S/C1=C\c1ccc(OC(F)F)cc1OC(F)F` [Compound V-6, (Z)-5-(2,4-bis(difluoromethoxy)benzylidene)-2-(cyclopentylamino) thiazol-4 (5H)-one], the “non-specific inhibition / non-specific bond” value in assay [1] is recorded as “no non-specific inhibition”. The “Growth inhibition rate (%)” value in assay [1] (setting [3]) is reported as 77.9%. Moreover, the Specificity result in assay [1] (Table 2) was “+ (there was no growth inhibition at pH 7.0 but was the growth inhibition at pH 8.5)”. Also, the figures for the IC50 in assay [2] (setting [4]) and in assay [2] (setting [5]) were 80 nM and no more than 400 nM, respectively.
For the molecule `CN(C)c1ccc2nc3ccc(N(C)C)cc3[s+]c2c1` [Compound V-27], in assay [1] (setting [3]), the “Growth inhibition rate (%)” value was 64.0%. The Specificity result in assay [1] (Table 2) is listed as “+ (there was no growth inhibition at pH 7.0 but was the growth inhibition at pH 8.5)”. In addition, the IC50 in assay [2] (setting [4]) came to 3000 nM.
Regarding `CC1=C(/C=C/C(C)=C/C=C/C(C)=C/C(=O)Nc2ccc(O)cc2)C(C)(C)CCC1` [Compound V-84, (2E,4E,6E,8E)-N-(4-hydroxyphenyl)-3,7-dimethyl-9-(2,6,6-trimethylcyclohexyl-1-en-1-yl)nona-2,4,6,8-tetraeneamide], the “non-specific inhibition / non-specific bond” value in assay [1] is reported as “non-specific inhibition”. The “Growth inhibition rate (%)” value in assay [1] (setting [3]) is 90.6%. Besides, in assay [1] (Table 2), the Specificity entry is reported as “− (there was no growth inhibition in any case)”. Further, the IC50 in assay [2] (setting [4]) was 80 nM; in assay [2] (setting [5]), no more than 400 nM.
With `CCC(C)C1OC2(CCC1C)CC1CC(CC=C(C)C(OC3CC(OC)C(OC4CC(OC)C(O)C(C)O4)C(C)O3)C(C)C=CC=C3COC4C(O)C(C)=CC(C(=O)O1)C34O)O2` (stereo not drawn) [Compound V-85], the “Growth inhibition rate (%)” value in assay [1] (setting [3]) is 66.4%. In addition, in assay [1] (Table 2), the Specificity entry is on record as “+ (there was no growth inhibition at pH 7.0 but was the growth inhibition at pH 8.5)”. Moreover, in assay [2] (setting [4]), the IC50 amounted to 10000 nM.
On to `CCCCCCCCc1ccc(O)c(C=O)c1` [Compound V-91], for which, in assay [1] (setting [3]), the “Growth inhibition rate (%)” value came out at 90.9%. Also, the Specificity result in assay [1] (Table 2) is reported as “n.a. (there was the growth inhibition in any case)”. Further, the IC50 in assay [2] (setting [6]) was determined as 850 nM.
The corresponding values for `CCCCC#Cc1cncc(C(=O)N/N=C/c2cccs2)c1` [Compound V-99] are 6.7%, “− (there was no growth inhibition in any case)” and 2500 nM.
Consider `CCCCCOc1ccc(NC(=O)c2cccs2)cc1` [Compound V-103], for which the “Growth inhibition rate (%)” value in assay [1] (setting [3]) was determined as 45.3%. Besides, the Specificity result in assay [1] (Table 2) is recorded as “+ (there was no growth inhibition at pH 7.0 but was the growth inhibition at pH 8.5)”. The IC50 in assay [2] (setting [4]) is 100 nM.
As for `CC(C)CN(CC(C)C)c1ccc([N+](=O)[O-])cc1/C=N/Nc1ccccc1` [Compound V-105], the “Growth inhibition rate (%)” value in assay [1] (setting [3]) is given as 90.8%. Further, in assay [1] (Table 2), the Specificity entry is on record as “n.a. (there was the growth inhibition in any case)”. For the same molecule, in assay [2] (setting [6]), the IC50 was 1000 nM.
On to `CC(Cc1ccc(O)c(O)c1)C(C)Cc1ccc(O)c(O)c1` (stereo not drawn) [Compound V-115], for which the “Growth inhibition rate (%)” value in assay [1] (setting [3]) is 0.3%. Besides, the Specificity entry in assay [1] (Table 2) was “− (there was no growth inhibition in any case)”. The IC50 in assay [2] (setting [4]) turned out to be 400 nM.
Turning to `CC1(C)CC2(CC(C)(C)c3cc(O)c(O)cc32)c2cc(O)c(O)cc21` [Compound V-124], the “Growth inhibition rate (%)” value in assay [1] (setting [3]) came out at 49.2%. In assay [1] (Table 2), the Specificity result is on record as “+ (there was no growth inhibition at pH 7.0 but was the growth inhibition at pH 8.5)”. In addition, the IC50 in assay [2] (setting [6]) is 300 nM.
As to `CCCCCCCCCOc1ccc(C=C2C(=O)NC(=O)NC2=O)cc1` [Compound V-130, 5-(4-(nonyloxy)benzylidene)pyrimidine-2,4,6 (1H,3H,5H)-trione], the “non-specific inhibition / non-specific bond” value in assay [1] is on record as “non-specific inhibition”. Besides, the “Growth inhibition rate (%)” value in assay [1] (setting [3]) is listed as 88.2%. Besides, the Specificity entry in assay [1] (Table 2) is given as “− (there was no growth inhibition in any case)”. Moreover, the IC50 in assay [2] (setting [4]) is 20 nM; in assay [2] (setting [5]), no more than 400 nM.
On to `CCCCC1CCC(C(=O)Oc2ccc(C=O)c(O)c2)CC1` (stereo not drawn) [Compound V-149], for which the “Growth inhibition rate (%)” value in assay [1] (setting [3]) was 90.5%. In addition, the Specificity entry in assay [1] (Table 2) is listed as “n.a. (there was the growth inhibition in any case)”. The IC50 in assay [2] (setting [6]) is 4500 nM.
The corresponding values for `CN(C)C(=S)N/N=C1\C(=O)C(c2ccccc2)(c2ccccc2)c2ccccc21` [Compound V-150] are 70.4%, “n.a. (there was the growth inhibition in any case)” and 500 nM.
The corresponding values for `COc1ccc(C(=O)N/N=C/C(C)=C/c2ccc(C(C)C)cc2)cc1` [Compound V-153] are 13.3%, “− (there was no growth inhibition in any case)” and 1000 nM.
The corresponding values for `O=C(NC(c1ccccc1)c1cc([N+](=O)[O-])c2cccnc2c1O)C1CCCCC1` (stereo not drawn) [Compound V-157] are 84.2%, “n.a. (there was the growth inhibition in any case)” and 2000 nM.
With `Cc1ccc2[nH]c(-c3ccc(N4CCCC4)cc3)nc2c1` [Compound V-161-01], the “Growth inhibition rate (%)” value in assay [1] (setting [7]) turned out to be 89.7%. Also, the Specificity result in assay [1] (Table 3) was “+ (there was no growth inhibition at pH 7.0 but was the growth inhibition at pH 8.5)”. In addition, the IC50 in assay [2] (IC50 (nM), Table 3, 2-phenyl benzimidazole derivatives) came to 50 nM.
Consider `CCc1ccc(-c2nc3cc(C)ccc3[nH]2)cc1` [Compound V-161-02], for which, in assay [1] (setting [7]), the “Growth inhibition rate (%)” value is recorded as 88.5%. For the same molecule, in assay [1] (Table 3), the Specificity entry was “+ (there was no growth inhibition at pH 7.0 but was the growth inhibition at pH 8.5)”. Also, the IC50 in assay [2] (setting [8]) worked out at 120 nM.
The corresponding values for `Cc1ccc2[nH]c(-c3ccc(Br)cc3)nc2c1` [Compound V-161-03] are 89.8%, “+ (there was no growth inhibition at pH 7.0 but was the growth inhibition at pH 8.5)” and 120 nM.
The corresponding values for `Cc1ccc2[nH]c(-c3ccc(I)cc3)nc2c1` [Compound V-161-04] are 90.3%, “+ (there was no growth inhibition at pH 7.0 but was the growth inhibition at pH 8.5)” and 120 nM.
On the same counts, the results for `COc1ccc(-c2nc3cc(C)ccc3[nH]2)cc1` [Compound V-161-10] are 86.8%, “+ (there was no growth inhibition at pH 7.0 but was the growth inhibition at pH 8.5)” and 120 nM.
